Source: patent US7970552B1, “Diagnostic system for selecting nutrition and pharmacological products for animals” (priority 2008, dated 2011)

Tested on: cartilage cells of individual affected unhealthy dogs
Assay: Cartilage cells of affected dogs cultured in vitro with 0 or 60 mg/l curcumin or andrographolide for 6 hours, microarray fold change in gene expression
Assay type: cell-based, German Shepherd dogs
Conditions: for Fold change of gene expression, mean: 60 mg/l vs 0, 6 hours; for Net effect of the NBC on fold change, mean: net of fold change in unhealthy dogs
Experimental: Total RNA of cells was extracted using phenol/guanidine HCI reagents (Trizol, Invitrogen). RNA quality integrity was analysed using the Agilent 2100 Bioanalyser (Agilent Technologies) of the sample. The samples determined to have no, or minimal, loss of integrity and thus were considered suitable for use in experiments. mRNA was amplified for each sample, starting with 500 ng total RNA using a commercially available kit (Ambion T7 MEGAscript high yield transcription kit, Ambion). The mRNA was quantified using a spectrophotometer. mRNA was directly reverse transcribed to cDNA from […] using the Superscript indirect cDNA labeling Core kit (Invitrogen, Milan, Italy).
Two micrograms of cDNA were labelled with Cyanine-3dCTP (Cy3) or Cyanine-5dCTP (Cy5) fluorochromes using the cDNA labeling purification module kit (Invitrogen, Milan, Italy). Samples were hybridised to a canine specific, whole genome 44k spot 60mer oligonucleotide (Agilent Technologies). The labelled cDNA was appropriately coupled and used for competitive hybridization on the same microarray at 42° C. for 16 h. Fluorescence incorporation was determined using a spectrophotometer. The relative intensity of labelled cDNA in was acquired with ScanArray LITE scanner (PerkinElmer Life Sciences, Inc).
Expression data were then exported into Excel 2007 and processed with SAM software; comparison between groups was achieved using paired student's t tests. […] Correction for multiple hypothesis testing was performed using the false discovery rate (FDR).
Searching within the nutrient data set for biologically active nutrients with anti-arthritic and anti-inflammatory properties identified curcumin and androgropholide as the appropriated compositions. The cartilage cells of individual affected unhealthy dogs were cultured in vitro with 0, or 60 mg/l of curcumin or androgropholide for 6 hours. At the end of the incubation, these cartilage cells from individual affected dogs were washed and used for RNA extraction. For the microarray analysis, co-hybridisation of the RNA from 0 and 60 mg/l was conducted, using the material and the methods described previously.
The table below reports the mean fold change in gene expression of two biologically active nutrients, namely curcumin and andrographolide. […] The dose to be added to the food or the nutrient composition is computed using literature data, which indicates a dose of 4 mg/kg body weight for either curcumin or andrographolide.

[1] = cartilage cells of affected dogs, 60 mg/l, 6 hours

In the case of `C=C1CC[C@@H]2[C@](C)(CO)[C@H](O)CC[C@@]2(C)[C@@H]1C/C=C1/C(=O)OC[C@H]1O` [Androgrpholide], the “Fold change of gene expression, mean” value (gene ACTB) is reported as −1.0, the “Net effect of the NBC on fold change, mean” value (gene ACTB, 60 mg/l, 6 hours) is reported as 2.8 and the “Fold change of gene expression, mean” value (gene ACTR3) is reported as 1.0. For the same compound, the “Net effect of the NBC on fold change, mean” value (gene ACTR3, 60 mg/l, 6 hours) was 1.3, the “Fold change of gene expression, mean” value (gene ADK) was 0.0 and the “Net effect of the NBC on fold change, mean” value (gene ADK, 60 mg/l, 6 hours) was 3.6. For the same compound, the “Fold change of gene expression, mean” value (gene ANKRD10) was 0.0, the “Net effect of the NBC on fold change, mean” value (gene ANKRD10, 60 mg/l, 6 hours) was 5.2 and the “Fold change of gene expression, mean” value (gene CAV1) was 0.0. The “Net effect of the NBC on fold change, mean” value (gene CAV1, 60 mg/l, 6 hours) was 4.8, the “Fold change of gene expression, mean” value (gene CDH11) was −1.0 and the “Net effect of the NBC on fold change, mean” value (gene CDH11, 60 mg/l, 6 hours) was 5.9. For the same compound, the “Fold change of gene expression, mean” value (gene COL3A1) was −2.0, the “Net effect of the NBC on fold change, mean” value (gene COL3A1, 60 mg/l, 6 hours) was 7.5 and the “Fold change of gene expression, mean” value (gene COX1) was 0.0. The “Net effect of the NBC on fold change, mean” value (gene COX1, 60 mg/l, 6 hours) was 0.8, the “Fold change of gene expression, mean” value (gene COX2) was 0.0 and the “Net effect of the NBC on fold change, mean” value (gene COX2, 60 mg/l, 6 hours) was 23.0. The “Fold change of gene expression, mean” value (gene IGFBP7) was −2.0, the “Net effect of the NBC on fold change, mean” value (gene IGFBP7, 60 mg/l, 6 hours) was 1.7 and the “Fold change of gene expression, mean” value (gene IL2) was −6.0. For the same compound, the “Net effect of the NBC on fold change, mean” value (gene IL2, 60 mg/l, 6 hours) was −3.0, the “Fold change of gene expression, mean” value (gene MMP2) was −5.0 and the “Net effect of the NBC on fold change, mean” value (gene MMP2, 60 mg/l, 6 hours) was 5.0. The “Fold change of gene expression, mean” value (gene NOS2) was −6.0, the “Net effect of the NBC on fold change, mean” value (gene NOS2, 60 mg/l, 6 hours) was −5.8 and the “Fold change of gene expression, mean” value (gene PTGS-2) was −5.0. The “Net effect of the NBC on fold change, mean” value (gene PTGS-2, 60 mg/l, 6 hours) was −3.8, the “Fold change of gene expression, mean” value (gene SPARC) was 0.0 and the “Net effect of the NBC on fold change, mean” value (gene SPARC, 60 mg/l, 6 hours) was 6.3. For the same compound, the “Fold change of gene expression, mean” value (gene STMN1) was 0.0, the “Net effect of the NBC on fold change, mean” value (gene STMN1, 60 mg/l, 6 hours) was 6.2 and the “Fold change of gene expression, mean” value (gene TIMP1) was 0.0. For the same compound, the “Net effect of the NBC on fold change, mean” value (gene TIMP1, 60 mg/l, 6 hours) was 6.2, the “Fold change of gene expression, mean” value (gene TIMP2) was 0.0 and the “Net effect of the NBC on fold change, mean” value (gene TIMP2, 60 mg/l, 6 hours) was 2.0. For the same compound, the “Fold change of gene expression, mean” value (gene TNF-a) was −8.0, the “Net effect of the NBC on fold change, mean” value (gene TNF-a, 60 mg/l, 6 hours) was 2.0 and the “Fold change of gene expression, mean” value (gene TUBA) was 0.0. The “Net effect of the NBC on fold change, mean” value (gene TUBA, 60 mg/l, 6 hours) was 4.7, the “Fold change of gene expression, mean” value (gene TUBB) was 0.0 and the “Net effect of the NBC on fold change, mean” value (gene TUBB, 60 mg/l, 6 hours) was 4.8.

In the case of `C=C1CC[C@@H]2[C@](C)(CO)[C@H](O)CC[C@@]2(C)[C@@H]1C/C=C1/C(=O)OC[C@H]1O` [andrographolide], the Anti-inflammatory activity [1] is reported as “possesses an anti-inflammatory activity” and the “Match with the regulation of the genes up- or down-regulated in affected unhealthy cartilage cells” value [1] is reported as “does not exactly match the regulation of all the genes”.

In the case of `COc1cc(/C=C/C(=O)CC(=O)/C=C/c2ccc(O)c(OC)c2)ccc1O` [curcumin], the “Match with the regulation of the genes up- or down-regulated in affected unhealthy cartilage cells” value [1] is reported as “completely satisfies these requirements”.
